Experimental data from patent US20130337564A1, “Treatment of Pluripotent Cells” (Janssen Biotech, Inc., priority 2012, published 2013).

What was measured:
[1] = tested on: human embryonic stem cell line H1; assay: Dose titration secondary assay: cell number, H1; assay type: cell-based; details: positive control (Wnt3a/Activin A) normalized to 1.000
Method: (§1) It was important to confirm the activity of hits identified from primary screening and further analyze the range of activity by dose titration. New samples of a selective subset of primary screening hits were obtained as dry powders, solubilized to make fresh stock reagents, and diluted into secondary confirmation assays to evaluate effects on human embryonic stem cells.
(§2) Culture of two human embryonic stem cells (H1 and H9) was conducted as described in Example 1. Colonies of cells were maintained in an undifferentiated, pluripotent state on Matrigel™ ([…]) coated polystyrene plastic, using a 1:30 dilution of Matrigel™ in DMEM:F12 to coat the surface. Cells were split by enzymatic passage every four days on average. Passage was performed by exposing cell monolayers to a solution of collagenase (1 mg/ml; Sigma-Aldrich) for 10 to 60 minutes at 37° C. followed by gentle scraping with a pipette tip to recover cell clusters. Clusters were allowed to sediment by gravity, then washed to remove residual collagenase. Cell clusters were split at a 1:3 ratio for maintenance culture or a 1:1 ratio for subsequent assay. The human embryonic stem cell lines were maintained at less than passage 50 and routinely evaluated for normal karyotypic phenotype and absence of mycoplasma contamination.
(§3) Cell clusters of the H1 or H9 human embryonic stem cell lines used in the assay were evenly resuspended in culture medium and plated onto Matrigel™-coated 96-well Packard VIEWPLATES (PerkinElmer) in volumes of 100 μl/well. MEF conditioned medium supplemented with 8 ng/ml bFGF was used for initial plating and expansion. Daily feeding was conducted by aspirating spent culture medium from each well and replacing with an equal volume of fresh medium. Cultures were allowed to expand one to three days after plating prior to initiating assay. Plates were maintained at 37° C., 5% CO2 in a humidified box for the duration of assay.
(§4) A subset of hits resulting from primary screening was used for follow-up study and subsequent secondary assays. Twenty compounds available as dry powders were solubilized as 10 mM stocks in DMSO and stored dessicated at […] until use Immediately prior to assay, compound stocks were diluted 1:1000 to make 10 μM test compound in DMEM:F12 base medium (Invitrogen) supplemented with 0.5% FCS (HyClone) and 100 ng/ml Activin A (R&D Biosystems). This was further diluted two-fold in series to make a seven point dilution curve for each compound, also in DMEM:F12 base medium with 0.5% FCS and 100 ng/ml Activin A.
(§5) Assay was initiated by aspirating culture medium from cell monolayers in each well followed by three washes in PBS to remove residual growth factors and serum. Test volumes of 100 μl per well were added back containing medium with 0.5% FCS and different concentrations of inhibitor compounds with 100 ng/ml Activin A, without Wnt3a. Positive control wells contained the same base medium with 0.5% FCS and with 20 ng/ml Wnt3a (R&D Biosystems) in the absence of test compound. Negative control wells contained the same base medium with 0.5% FCS, in the absence of Activin A, Wnt3a, or test compound. Assay wells were aspirated and fed again with identical concentrations of test compound or control solutions on day 2 of assay. On days 3 and 4, all assay wells were aspirated and fed with DMEM:F12 supplemented with 2% FCS and 100 ng/ml Activin A in the absence of both test compound or Wnt3a. Parallel negative control wells were maintained on days 3 and 4 in DMEM:F12 base medium with 2% FCS.
(§6) At the end of culture, cells in 96-well plates were washed twice with PBS then fixed with 4% paraformaldehyde at room temperature for 20 minutes, washed three times more with PBS, and then permeabilized with 0.5% Triton X-100 for 20 minutes at room temperature. After fixing and permeabilizing, cells were washed again three times with PBS and then blocked with 4% chicken serum (Invitrogen) in PBS for 30 minutes at room temperature. […]

[2] = tested on: Sox17 expression in human embryonic stem cell line H1; assay: Dose titration secondary assay: Sox17 intensity, H1; assay type: cell-based
Method: as §1, §2, §3, §4, §5, §6

O=C1NC(=O)C2=C1c1cn(c3ccccc13)CCOCCOCCN(Cc1cccc3ccccc13)CCn1cc2c2ccccc21 [Compound 136, 14-(Naphthalen-1-ylmethyl)-6,7,9,10,13,14,15,16-octahydro-12H,23H-5,26:17,22-di(metheno)dibenzo[k,q]pyrrolo[3,4-n][1,4,7,10,19]dioxatriazacyclohenicosine-23,25(24H)-dione]
Cell number ([1]; Conc 0.156 μM): 0.742 | Cell number ([1]; Conc 0.313 μM): 0.868 | Cell number ([1]; Conc 0.625 μM): 0.910 | Cell number ([1]; Conc 1.25 μM): 0.850 | Cell number ([1]; Conc 2.5 μM): 0.428 | Cell number ([1]; Conc 5 μM): 0.173 | Cell number ([1]; Conc 10 μM): 0.058 | Sox17 Intensity ([2]; 0.156 μM compound): 0.666 | Sox17 Intensity ([2]; 0.313 μM compound): 0.859 | Sox17 Intensity ([2]; 0.625 μM compound): 0.887 | Sox17 Intensity ([2]; 1.25 μM compound): 0.783 | Sox17 Intensity ([2]; 2.5 μM compound): 0.373 | Sox17 Intensity ([2]; 5 μM compound): 0.141 | Sox17 Intensity ([2]; 10 μM compound): 0.054
